The structures appear in SMILES notation.

Here are results for one molecule from patent US20250177366A1, “COMPOSITIONS AND METHODS FOR ALLEVIATING PAIN AND REDUCING ADVERSIVENESS OF STIMULI” (UNIVERSITY OF WASHINGTON, priority 2021, published 2025).

In assay [1] the test system is larval zebrafish. In words: Chemical attraction/aversion assay with the test chemical itself as source (inherent attractiveness). Type of assay: in vivo, Zebrafish (Danio rerio). From the text:
To confirm that AS1 itself was not attractive, the chemical attraction/aversion assay was used. […] Since the assay was modified to accommodate the inability to dissolve SKF into agarose at high concentrations (see Materials and Methods), the inherent attractiveness of AS1 was re-tested using this new format.
Chemical attraction/aversion assays. The agarose attraction/aversion assay was adapted from previously described experiments (Jordi et al., Sci. Adv. 2018; 4:1-15). For the AITC aversion assay, AITC and DMSO were added to molten 0.8% agarose to achieve a final concentration of 100 mM AITC and 2% DMSO. For the AS1 attraction/aversion assay, AS1 and DMSO were added to 0.8% molten agar to achieve final concentrations of 50 mM and 2%, respectively. To construct the test chambers, the lids of 10×10 cm square petri dishes (insert cat #and company) were lined on four sides with either the test (chemical-containing) or plain agarose (300 μL per side) and allowed to solidify. For all experiments, 30-40 randomly selected 6 dpf zebrafish were caught with a 10 mL pipette pump (Bel-Air Products, cat #: 13683C) equipped with a glass wide-bored Pasteur pipet (Fisher Scientific, cat #: 22-037-540) and deposited into a standard 10 cm diameter petri dish (Fisher Scientific, cat #: 07-202-031). As much E2 media as possible was carefully removed using the same pipette. For single incubation experiments, 30 mL of 1× solutions of the control or test chemical was added to each petri dish, and fish were incubated for 10 minutes at 28.5° C. For double incubation experiments, 15 mL of 1× solutions containing control (DMSO) or test chemicals was added to the larvae-containing petri dish. […] Swimming behavior was immediately recorded for 20 minutes using the same high-definition camcorder in the thermal preference assays.
For the SKF attraction/aversion assay, custom 10 cm×10 cm plates using clear resin (Formlabs, cat #: RS-F2-GPCL-04) and a Form 3+3D printer (Formlabs, cat #: PKG-F3-WSVC-BASIC) were designed. […] Swimming behavior was then recorded for 20 minutes. […]

Assay [2] concerns T1, 5-HT2a serotonin receptor (Homo sapiens).
T1 construct: Psychoactive Drug Screening Program (PDSP)
The experiment in a line: PDSP radioligand binding assay. To be noted: PDSP screen. As to the method: (§1) To further seek out the molecular target(s) of AS1, the resources of the Psychoactive Drug Screening Program (PDSP) (Besnard et al., Nature. 2012; 492:215-220) were utilized. […] While not being limited to mechanism or theory, to verify whether these receptors were involved in mediating the effects of AS1, the thermal preference assay following incubation in drugs that specifically acted upon these receptors was employed. […] Nor did treatment with the 5-HT2 s antagonist LY266097 replicate or reverse the effects of AS1 (FIG. 6). Incubation in either the specific sigma-1 receptor agonist (PRE-084) or antagonist (BD1063) similarly yielded no effects (FIG. 6).

In assay [3] the target is T2, sigma-1 receptor (Homo sapiens, UniProt Q99720).
T2 construct: Psychoactive Drug Screening Program (PDSP)
In words: PDSP radioligand binding assay. To be noted: PDSP screen. How it is done:
as §1

T2 sequence (Q99720 whole entry, species assumed): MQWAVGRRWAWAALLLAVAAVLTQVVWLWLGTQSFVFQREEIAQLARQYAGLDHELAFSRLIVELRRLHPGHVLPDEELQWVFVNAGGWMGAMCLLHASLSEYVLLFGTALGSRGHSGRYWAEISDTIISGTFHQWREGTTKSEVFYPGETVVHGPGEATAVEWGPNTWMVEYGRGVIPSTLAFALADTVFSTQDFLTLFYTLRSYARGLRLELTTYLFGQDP
T1 sequence (P41595 whole entry): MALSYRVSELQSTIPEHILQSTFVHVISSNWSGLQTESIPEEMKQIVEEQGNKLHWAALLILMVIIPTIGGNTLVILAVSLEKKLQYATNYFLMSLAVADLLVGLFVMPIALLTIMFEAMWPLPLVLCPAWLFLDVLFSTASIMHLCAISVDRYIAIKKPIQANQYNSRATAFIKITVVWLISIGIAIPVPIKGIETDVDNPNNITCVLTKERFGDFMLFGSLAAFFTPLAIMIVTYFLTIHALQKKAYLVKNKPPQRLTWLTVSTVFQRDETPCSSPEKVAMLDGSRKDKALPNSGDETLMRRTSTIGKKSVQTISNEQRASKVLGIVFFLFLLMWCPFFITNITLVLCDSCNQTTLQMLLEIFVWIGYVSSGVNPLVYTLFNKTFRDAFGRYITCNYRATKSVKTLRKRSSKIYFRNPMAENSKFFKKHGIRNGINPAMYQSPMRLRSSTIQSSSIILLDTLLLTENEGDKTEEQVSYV

`CC(C)c1ccc(C(=O)Nc2ccncc2)cc1` [AS1, 4-propan-2-yl-N-pyridin-4-ylbenzamide]: in assay [1] (50 mM AS1 in agarose on one side of square arena vs control agarose), the “inherent attractiveness of chemical infused into agarose” value is reported as “did not approach it in a way that was appreciably different from control agarose”. In addition, the “inherent attractiveness of chemical deposited into trough” value in assay [1] (2 mL in trough of 3D-printed arena, SKF 25 μM, AS1 10 μM-1 mM) was “neutral or mildly aversive”. The radioligand binding interaction result in assay [2] and in assay [3] was “potentially weak interactions” throughout.
